Key:
Type in all cases: cell-based, mouse
B16F10 cells [1] = experiment: Melanin production inhibitory effect test; conditions: 100 ppm, absorbance 475 nm
Method: To determine an inhibitory effect of the TAT-α-tyrosinase scFv antibody on melanin production in cells, B16F10 cell lines were treated with the TAT-α-tyrosinase scFv antibody and then the produced intracellular melanin content was measured. B16F10 cells, which are malignant melanoma cells, were cultured at 37° C. in the CO2 incubator. Thereafter, the cells were treated with 10 ppm of the TAT-α-tyrosinase scFv antibody and 100 ppm of arbutin as a positive control, followed by further culture under the same culture conditions. After the culture, each well was washed with PBS and 130 ul of 1 N NaOH solution was added to dissolve it at 60° C. for 1 hour.

B16F10 cells [2] = experiment: Reactive oxygen species inhibitory effect test
Method: In order to determine the inhibitory effect of the TAT-α-tyrosinase scFv antibody on reactive oxygen species in cells, the B16F10 cell lines were treated with the TAT-α-tyrosinase scFv antibody, and then the content of intracellular reactive oxygen species was measured using fluorescence staining. B16F10 cells, which are malignant melanoma cells, were cultured in the CO2 incubator at 37° C. Thereafter, the cells were treated with 100 ppm of the TAT-α-tyrosinase scFv antibody and 100 ppm of arbutin as a positive control, and then further cultured under the same culture conditions. After the culture, 0.2 mM hydrogen peroxide was added to each well, and then cultured for 2 hours. Carboxy-H2DCF-DA was added and reaction was carried out at 37° C. for 30 minutes. After washing with PBS, fluorescence was measured with the ELISA Reader system at 475/535 nm by re-addition of PBS, and the values are shown in Table 4.

B16F10 cells [3] = experiment: Cytotoxicity test (MTT); conditions: unit assumed
Method: In order to examine cytotoxicity of the TAT-α-tyrosinase scFv antibody, B16F10 cells, mouse-derived malignant melanoma cells, were cultured in a CO2 incubator at 37° C. After the culture, the cells were treated with the TAT-α-tyrosinase scFv antibody at different concentrations (0.1, 1, 5, 10, 50, 100 ppm), and then further cultured under the same culture conditions. After the culture, MTT{3-(4,5-Dimethylthiazol-2-yl)-2,5-Diphenyltetrazolium Bromide} solution was added and cultured. After that, the culture solution was removed, and DMSO (dimethyl sulfoxide) was added and shaken moderately.

Compound: OC[C@H]1O[C@@H](Oc2ccc(O)cc2)[C@H](O)[C@@H](O)[C@@H]1O [Arbutin]
- Melanin biosynthesis amount (% of control), Average (B16F10 cells [1]): 66.1 % of control
- ROS (fold of control), Average (B16F10 cells [2]; 0.2 mM H2O2, 100 ppm): 1.29 fold of control
- ROS (fold of control), Average (B16F10 cells [2]; non treat control (no H2O2), 100 ppm): 0.82 fold of control
- Cell viability (MTT, absorbance at 570 nm), Average (B16F10 cells [3]; 0.1 ppm): 97.6%
- Cell viability (MTT, absorbance at 570 nm), Average (B16F10 cells [3]; 1 ppm): 97%
- Cell viability (MTT, absorbance at 570 nm), Average (B16F10 cells [3]; 5 ppm): 83.5%
- Cell viability (MTT, absorbance at 570 nm), Average (B16F10 cells [3]; 10 ppm): 89.3%
- Cell viability (MTT, absorbance at 570 nm), Average (B16F10 cells [3]; 50 ppm): 82.4%
- Cell viability (MTT, absorbance at 570 nm), Average (B16F10 cells [3]; 100 ppm): 57.7%
